Measured values as given in patent publication US20220312771A1, “BIOCIDAL COMPOSITE MATERIAL” (PENNOG LIMITED, priority 2019, published 2022).

Test system: Chlorella sp.
Test: Growth of Chlorella sp. in Jaworskis Medium with different concentrations of copper
Type: cell-based
Conditions: 14 days
Procedure: Fresh water algae Chlorella sp. cultivated at between 10° C. and 20° C. for 14 days on Jaworskis Medium (Table below) was inoculated into fresh, sterile Jaworskis Medium (prepared as per Table 11) containing copper sulphate solution and copper-containing soak solutions. The soak solution was obtained from the third soak of the second cycle of phototreated MSMCu from Example 3. The extent of growth of Chlorella sp. was observed after a further 14 days (Table 12).
After 14 days in different concentrations of copper.

O=S(=O)([O-])[O-].[Cu+2] [Copper sulphate solution, copper sulphate]
Growth of Chlorella sp., Abs 665 nm (copper concentration 1 μg/L): 0.137 | Growth of Chlorella sp., Abs 780 nm (copper concentration 1 μg/L): 0.118 | Growth of Chlorella sp., Abs 665 nm (copper concentration 2 μg/L): 0.143 | Growth of Chlorella sp., Abs 780 nm (copper concentration 2 μg/L): 0.128 | Growth of Chlorella sp., Abs 665 nm (copper concentration 5 μg/L): 0.103 | Growth of Chlorella sp., Abs 780 nm (copper concentration 5 μg/L): 0.096 | Growth of Chlorella sp., Abs 665 nm (copper concentration 7 μg/L): 0.081 | Growth of Chlorella sp., Abs 780 nm (copper concentration 7 μg/L): 0.077 | Growth of Chlorella sp., Abs 665 nm (copper concentration 9 μg/L): 0.092 | Growth of Chlorella sp., Abs 780 nm (copper concentration 9 μg/L): 0.077
